Assay [1] has as its target glycine site on the NMDA receptor. Description: [3H]MK-801 binding test operated to identify antagonists of the NMDA-glycine site. The settings on record: rat cortex/hippocampus membranes; glutamate 10 μM, glycine 200 nM, 2.5 nM [3H]MK-801, 1 hour room temperature; FIG. 2A; read-out: concentration of antagonist resulting in about a 50% effect on [3H]MK-801 binding. The procedure: Sterner and Calligaro, Soc. Neurosci.
The membrane preparation included the following steps:
1. Sacrifice and decapitate four rats; remove cortices and hippocampi.
3. Centrifuge tissue at 1000×g, 10 minutes. Save supernatant.
4. […] Discard the supernatant.
5. […] Stir the suspension on ice for one hour.
6. […] Leave on ice for 20 minutes.
The final volume of the assay was 200 μl.

A further assay has as its system NMDA receptor. Description: Calcium flux (45Ca++ accumulation) in primary neuronal cortical cell cultures. The format is cell-based, rat. The settings on record: L-689,560 50 μM with NMDA 500 μM; 10 minutes room temperature; FIG. 3. The procedure:
A functional ion-flux assay used to measure the effect of compounds identified by the present invention relates to the ability to enhance or inhibit calcium flux through the NMDA receptor. This test is performed on suitable cell cultures that have membrane-bound NMDA receptors and glycine transporters. Such cells include neuronal cells generally, including those of the central nervous system, including brain, and cell lines derived therefrom, and any other cell that has been induced or transfected to express NMDA receptors. Calcium used in such a test is commonly the ^45 Ca isotope, although other calcium measuring techniques can be used as well, such as calcium-associated fluorescence and the like. However the calcium is monitored, calcium flux is enhanced or inhibited as a result of the discrete addition of a compound of the present invention. An advantage of this system is that it allows one to monitor the net effect on NMDA receptor function of a compound that interacts with the glycine site on the NMDA receptor and the glycine transporter.
This example illustrates a protocol for measuring calcium flux in primary neuronal cells, which is an indication of NMDA receptor activation. […]
The tissue was chopped with a scalpel and then triturated with a glass pipet that had been fire polished. […] Cells were counted in a suitable counting chamber. […]
A general note: A change in cytosolic calcium serves as a functional read-out for many receptors and channels.

For the next assay, the target named is T1, GlyT-1c (Homo sapiens, UniProt P48067).
T1 construct: expressed in transfected cells; host or cells: QT-6 quail fibroblast cells (ATCC CRL-1708), transient transfection
T1 sequence (P48067 1-706): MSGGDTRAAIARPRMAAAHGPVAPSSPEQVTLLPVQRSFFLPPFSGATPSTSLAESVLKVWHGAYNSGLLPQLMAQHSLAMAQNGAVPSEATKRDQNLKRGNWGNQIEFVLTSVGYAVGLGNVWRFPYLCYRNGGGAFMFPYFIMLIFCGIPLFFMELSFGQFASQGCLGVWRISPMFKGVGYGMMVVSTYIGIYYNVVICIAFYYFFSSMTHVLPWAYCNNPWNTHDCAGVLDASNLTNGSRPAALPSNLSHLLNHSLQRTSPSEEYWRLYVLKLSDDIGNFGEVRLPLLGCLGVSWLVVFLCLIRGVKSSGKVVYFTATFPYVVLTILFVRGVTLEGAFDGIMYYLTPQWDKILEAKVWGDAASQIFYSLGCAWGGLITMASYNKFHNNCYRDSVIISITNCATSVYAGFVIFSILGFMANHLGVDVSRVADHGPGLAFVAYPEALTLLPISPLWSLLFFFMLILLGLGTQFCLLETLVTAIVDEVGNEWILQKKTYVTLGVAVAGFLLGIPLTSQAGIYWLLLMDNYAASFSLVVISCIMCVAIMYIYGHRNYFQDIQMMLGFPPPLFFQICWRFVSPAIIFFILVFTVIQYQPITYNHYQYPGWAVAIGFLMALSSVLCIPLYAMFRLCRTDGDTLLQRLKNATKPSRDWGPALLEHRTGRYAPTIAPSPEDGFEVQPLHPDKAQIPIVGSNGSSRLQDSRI
Description: Inhibition of [3H]glycine uptake in QT-6 cells transiently transfected with GlyT-1c. The format is cell-based. The settings on record: for selectivity GlyT-1c relative to GlyT-2: comparison of pIC50 at GlyT-1c and GlyT-2 in transfected QT-6 cells. The procedure:
(§1) This example sets forth methods and materials used for growing and transfecting QT-6 cells.
The human GlyT-1c (hGlyT-1c) clone used contains the sequence of hGlyT-1c [SEQ ID NO:3] from nucleotide position 213 to 2336 cloned into the pRc/CMV vector (Invitrogen) as a Hind III-Xba I fragment as described in Kim et al., supra. The Hind III-Xba fragment of hGlyT-1c from this clone was then subcloned into the pRc/RSV vector. Transfection experiments were performed with GlyT-1c in both the pRc/RSV and pRc/CMV expression vectors.
(§2) The following four day procedure for the tranfections was used:
(§3) On day 1, QT-6 cells were plated at a density of 1×10^6 cells in 10 ml of complete QT-6 medium in 100 mm dishes.
(§4) On day 2, the medium was aspirated and the cells were washed with 10 ml of PBS followed by 10 ml of TBS. The TBS was aspirated, then 1 ml of the DEAE/DNA mix was added to the plate. The plate was swirled in the hood every 5 minutes. After 30 minutes, 8 ml of 80 μM chloroquine in QT-6 medium was added and the culture was incubated for 2.5 hours at 37° C. and 5% CO2. The medium was then aspirated and the cells were washed two times with complete QT-6 medium, then […] complete QT-6 medium was added and the cells were returned to the incubator.
(§5) On day 3, the cells were removed with trypsin/EDTA as described above, and plated into the wells of 96-well assay plates at approximately 2×10^5 cells/well.
(§6) On day 4, glycine transport was assayed as described in Example 2.
(§7) This example illustrates a method for the measurement of glycine uptake by transfected cultured cells.
(§8) Transient GlyT-transfected cells or control ("mock") cells grown in accordance with Example 1 were washed three times with HEPES buffered saline (HBS). The mock cells were treated precisely as the GlyT-transfected cells except that the transfection procedure omitted any cDNA. The cells were incubated 10 minutes at 37° C., after which a solution was added containing 50 nM [^3 H] glycine (17.5 Ci/mmol) and either (a) no potential competitor, (b) 10 mM nonradioactive glycine or (c) a concentration of a candidate drug. […] The cells were then incubated another 20 minutes at 37° C., after which the cells were aspirated and washed three times with ice-cold HBS. The cells were harvested, scintillant was added to the cells, the cells were shaken for 30 minutes, and the radioactivity in the cells was counted using a scintillation counter. Data were compared between the cells contacted or not contacted by a candidate agent, and between cells having GlyT-1 activity versus cells having GlyT-2 activity, depending on the assay being conducted.

Another assay has as its target T2, GlyT-2 (Rattus norvegicus, UniProt P58295).
T2 construct: expressed in transfected cells; host or cells: QT-6 quail fibroblast cells (ATCC CRL-1708), transient transfection
T2 sequence (P58295 1-799): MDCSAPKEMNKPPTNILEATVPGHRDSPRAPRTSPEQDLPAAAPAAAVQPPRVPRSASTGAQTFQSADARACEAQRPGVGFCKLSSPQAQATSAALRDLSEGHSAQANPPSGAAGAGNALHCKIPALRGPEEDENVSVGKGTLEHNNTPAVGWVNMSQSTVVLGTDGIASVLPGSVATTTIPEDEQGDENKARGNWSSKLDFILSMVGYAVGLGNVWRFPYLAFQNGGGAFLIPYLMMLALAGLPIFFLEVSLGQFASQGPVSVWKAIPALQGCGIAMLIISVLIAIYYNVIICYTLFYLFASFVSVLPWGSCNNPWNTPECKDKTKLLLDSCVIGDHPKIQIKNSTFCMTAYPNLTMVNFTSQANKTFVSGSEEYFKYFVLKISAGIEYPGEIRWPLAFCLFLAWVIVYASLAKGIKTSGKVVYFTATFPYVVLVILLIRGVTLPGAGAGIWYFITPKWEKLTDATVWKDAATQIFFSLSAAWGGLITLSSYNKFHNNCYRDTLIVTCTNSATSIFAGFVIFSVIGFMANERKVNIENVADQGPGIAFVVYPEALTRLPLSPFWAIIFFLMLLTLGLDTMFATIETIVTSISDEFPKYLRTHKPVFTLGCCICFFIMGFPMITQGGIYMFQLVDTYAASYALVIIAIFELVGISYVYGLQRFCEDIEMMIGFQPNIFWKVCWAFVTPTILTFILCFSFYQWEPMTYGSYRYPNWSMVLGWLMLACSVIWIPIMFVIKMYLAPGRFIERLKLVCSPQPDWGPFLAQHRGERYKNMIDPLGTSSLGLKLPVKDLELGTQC
Description: Inhibition of [3H]glycine uptake in QT-6 cells transiently transfected with GlyT-2. It is filed as cell-based. The procedure:
as §1, §2, §3, §4, §5, §6, §7, §8

Assay [2] has as its target glycine site on the NMDA receptor. The settings on record: read-out: concentration of agonist resulting in about a 50% effect on [3H]MK-801 binding; rat cortex/hippocampus membranes; glutamate 10 μM, 2.5 nM [3H]MK-801, 1 hour room temperature; FIG. 2B.
Description: In particular, compounds having agonist activity in this assay enhance MK-801 binding; conversely, compounds having antagonist activity inhibit MK-801 binding.
Preparation of membranes for the binding test required application of a series of standard methods. Unless otherwise specified, tissues and homogenates were kept on ice and centrifugations were conducted at 4° C. Homogenizations were conducted with an effort to minimize resulting rise in tissue/homogenate temperature. The membrane preparation included the following steps:
Homogenize tissue in twenty volumes of 0.32 M sucrose/5 mM Tris-Acetate (pH 7.4) with 20 strokes of a glass/teflon homogenizer.
Centrifuge tissue at 1000×g, 10 minutes. Save supernatant. Resuspend pellet in small volume of buffer and homogenize again. Centrifuge the homogenized pellet and combine the supernatant with the previous supernatant.
Centrifuge the combined supernatants at 40,000×g, for 30 minutes. Discard the supernatant. […]
The assay was started by the addition of 2.5 nM [^3 H]MK-801 (23.9 Ci/mmol), which binds to the ion channel associated with NMDA receptors. […] Bound radioactivity was separated from free by filtration, using a TOMTEC harvester. Antagonist activity was indicated by decreasing radioactivity associated with the NMDA receptor with increasing concentration of the tested ligand.
Setting [3] is: QT-6 cells transfected with GlyT-1c, 50 nM [3H]glycine, 20 min at 37° C, read-out: Effect Via GlyT-1c, pIC50 (converted).
Where [4] appears, read: QT-6 cells transfected with GlyT-2, 50 nM [3H]glycine, 20 min at 37° C, read-out: Effect Via GlyT-2, pIC50 (converted).

Where two headings read alike, the source gives them in different places.

For `O=C(Nc1ccccc1)N[C@@H]1C[C@@H](C(=O)O)Nc2cc(Cl)cc(Cl)c21` (relative stereo) [L-689,560], the IC50 in assay [1] is ~0.5 µM. Also, in the assay on NMDA receptor, the “blockade of NMDA-caused accumulation of 45Ca++” value is given as “blocked”.
For `Clc1ccc(C(c2ccc(Cl)cc2)n2cc[n+](CC(OCc3ccc(Cl)cc3Cl)c3ccc(Cl)cc3Cl)c2)cc1` (stereo not shown) [ZA], the IC50 at GlyT-1c (setting [3]) is 0.912 µM; at GlyT-2 (setting [4]), 3.09 µM. The “selectivity GlyT-1c relative to GlyT-2” value on GlyT-1c is “selective for GlyT-1c relative to GlyT-2”.
Take `CC(C)(C)c1ccc(C(O)CCCN2CCC(C(O)(c3ccccc3)c3ccccc3)CC2)cc1` (stereo not shown) [ZB]: the results for the IC50 on GlyT-1c and against GlyT-2 were 4.27 µM and 17 µM, respectively. For the same compound, the “selectivity GlyT-1c relative to GlyT-2” value on GlyT-1c is reported as “selective for GlyT-1c relative to GlyT-2”.
The corresponding values for `CC(Cc1ccccc1)NCCC(c1ccccc1)c1ccccc1` (stereo not shown) [ZC] are 6.46 µM, 14.1 µM and “selective for GlyT-1c relative to GlyT-2”.
With `CSc1ccc2c(c1)N(CCC1CCCCN1C)c1ccccc1S2` (stereo not shown) [ZD], on GlyT-1c (setting [3]), the IC50 was 9.55 µM.
`CC(NCCC(c1ccccc1)c1ccccc1)c1ccccc1` (stereo not shown) [ZE]: at GlyT-1c, the IC50 was 12.9 µM and the “selectivity GlyT-1c relative to GlyT-2” value is recorded as “selective for GlyT-1c relative to GlyT-2”. For the same compound, on GlyT-2, the IC50 was 20.9 µM.
`CN1CCC(=C2c3ccccc3CCc3ccccc32)CC1` [ZF]: the figures for the IC50 on GlyT-1c (setting [3]) and on GlyT-2 (setting [4]) were 21.4 µM and 14.5 µM, respectively. Further, at GlyT-1c, the “selectivity GlyT-1c relative to GlyT-2” value is given as “reverse selectivity”.
For `NCC(=O)O` [glycine], in assay [2], the EC50 was ~1 µM.

The record behind these values is patent US5968823A, “Glycine transporter-transfected avian cells and uses thereof” (Allelix Neuroscience Inc., priority 1998, dated 1999).
